# Article PMC3787887 (International Journal of Oncology, 2013)
# Where “and” joins values, the source holds several entries; their conditions need not be identical. Equal entries are not always repeated.
# Experiments:
# [1] = Plasma and tumor drug levels at end of xenograft study; assay type: in vivo, nude mice
# [2] = Pharmacokinetic study in mice, plasma PS metabolites by HPLC; assay type: in vivo
# A549 cells [3] = experiment: Cellular uptake of PS, A549; assay type: cell-based, human; conditions: 1 h; for increase in the intracellular accumulation of PS by transporter inhibitor: co-incubation with 100 μM PS
# SW480 cells = experiment: Cellular uptake of PS, SW480; assay type: cell-based, human; conditions: 1 h; for enhancement of the cellular accumulation of PS by transporter inhibitor: co-incubation with 100 μM PS
# A549 xenografts = experiment: A549 subcutaneous xenografts in nude mice; assay type: in vivo; conditions: for inhibition of human lung cancer xenografts (abstract, measure not named): PS 200 mg/kg, curcumin 500 mg/kg, oral gavage; for tumor volume at the end of the study: day 36, mean ± SEM; for reduction in tumor volume: end of study
# [4] = tested on: human lung cancer xenografts; conditions: cited from earlier work
# A549 cells [5] = experiment: Apoptotic cell death analysis; assay type: cell-based, human; conditions: 20-h incubation
# A549 cells [6] = experiment: Cell growth inhibition; assay type: cell-based, human; conditions: PS 80 μM 24 h, curcumin 100 μM pretreatment
# lung cancer = conditions: pre-clinical models of lung cancer; cited from earlier work
# [7] = plasma metabolite after PS 200 mg/kg + curcumin 500 mg/kg in 10% Tween-80
# [8] = plasma metabolite after PS 200 mg/kg + curcumin 500 mg/kg in micelles
# [9] = plasma metabolite after single oral dose PS 200 mg/kg alone
# [10] = PS 200 mg/kg/d, curcumin 500 mg/kg/d
# [11] = vs control, PS 200 mg/kg/d, curcumin 500 mg/kg/d
# [12] = curcumin 25 μM co-added with PS
compound,measurement,setting,value
"CSc1ccc(/C=C2/C(C)=C(CC(=O)O)c3cc(F)ccc32)cc1 [Sulindac sulfide, sulindac sulfide]","level in A549 xenografts, PS plus curcumin group vs PS alone group",[1],3 fold higher
"CC1=C(CC(=O)O)c2cc(F)ccc2/C1=C\c1ccc([S+](C)[O-])cc1 (stereo not shown) [Sulindac, sulindac, reference compound]",increase of Cmax vs PS alone,[2]; PS co-administered with curcumin in 10% Tween-80,70%
same,increase of Cmax vs PS alone,[2]; PS co-administered with curcumin in nanoparticles,40%
same,"level in A549 xenografts, PS plus curcumin group vs PS alone group",[1],1 fold higher
COc1ccc(CCN(C)CCCC(C#N)(c2ccc(OC)c(OC)c2)C(C)C)cc1OC (stereo not shown) [verapamil],increase in the intracellular accumulation of PS by transporter inhibitor,A549 cells [3],no effect
same,enhancement of the cellular accumulation of PS by transporter inhibitor,SW480 cells,67%
COc1ccc2c3c([nH]c2c1)[C@H](CC(C)C)N1C(=O)[C@H](CCC(=O)OC(C)(C)C)NC(=O)[C@@H]1C3 [Ko143],increase in the intracellular accumulation of PS by transporter inhibitor,A549 cells [3],no effect
CN(C)C(=O)CCSC(SCCC(=O)O)c1cccc(/C=C/c2ccc3ccc(Cl)cc3n2)c1 (stereo not shown) [MK571],increase in the intracellular accumulation of PS by transporter inhibitor,A549 cells [3],51%
same,enhancement of the cellular accumulation of PS by transporter inhibitor,SW480 cells,30%
COc1cc(/C=C/C(=O)CC(=O)/C=C/c2ccc(O[C@@H]3O[C@H](C(=O)O)[C@@H](O)[C@H](O)[C@H]3O)c(OC)c2)ccc1O [curcumin glucuronide],detection in A549 xenografts,[1],"Neither curcumin, nor its glucuronide, was detected"
same,level in the plasma,[1]; curcumin and PS plus curcumin groups,minute levels
"CC1=C(CC(=O)O)c2cc(F)ccc2/C1=C\c1ccc(S(C)(=O)=O)cc1 [Sulindac sulfone, sulindac sulfone]",Cmax,[2]; [7],11.7 µM
same,Tmax,[2]; [7],4 h
same,Cmax,[2]; [8],7.7 µM
same,Tmax,[2]; [8],4 h
same,Cmax,[2]; [9],5.6 µM
same,Tmax,[2]; [9],4 h
same,"level in A549 xenografts, PS plus curcumin group vs PS alone group",[1],5 fold higher
"CCOP(=O)(OCC)OCCCCOC(=O)CC1=C(C)/C(=C/c2ccc([S+](C)[O-])cc2)c2ccc(F)cc21 (stereo not shown) [PS, Phospho-sulindac]","inhibition of human lung cancer xenografts (abstract, measure not named)",A549 xenografts,25%
same,adverse effects on the mice during the study,A549 xenografts; [10],no apparent adverse effects
same,body weight at sacrifice,A549 xenografts; [10],23 ± 1 g
same,effect on the growth of A549 xenografts (in words),A549 xenografts; [10],did not significantly inhibit
same,tumor volume at the end of the study,A549 xenografts; [10],419±36 mm^3
same,reduction in tumor volume,A549 xenografts; [11],19.6% and 20%
same,reduction in tumor weight,"A549 xenografts; end-point, vs control, PS 200 mg/kg/d, curcumin 500 mg/kg/d",27%
same,intact PS in plasma,[2]; any of the three treatments,not detected
same,total plasma AUC0–24 h (sum of all metabolites),"[2]; single oral dose PS 200 mg/kg, curcumin 500 mg/kg",211 µM·h
same,efficacy as a single agent in the treatment of human lung cancer xenografts,[4],ineffective
same,percentage of apoptotic cells,A549 cells [5]; PS 80 μM alone or with curcumin 100 μM,3.9%
same,percentage of apoptotic cells,A549 cells [5]; PS 100 μM alone or with curcumin 100 μM,5.0%
same,reduction of cell viability,A549 cells [6],30%
"COc1cc(/C=C/C(=O)CC(=O)/C=C/c2ccc(O)c(OC)c2)ccc1O [curcumin, Curcumin, reference compound]","inhibition of human lung cancer xenografts (abstract, measure not named)",A549 xenografts,no effect
same,adverse effects on the mice during the study,A549 xenografts; [10],no apparent adverse effects
same,body weight at sacrifice,A549 xenografts; [10],23 ± 1 g
same,effect on the growth of A549 xenografts (in words),A549 xenografts; [10],did not significantly inhibit
same,tumor volume at the end of the study,A549 xenografts; [10],599±98 mm^3
same,reduction in tumor volume,A549 xenografts; [11],no inhibition
same,efficacy as a single agent,lung cancer,< 30%
same,increase of intracellular levels of PS,A549 cells [3]; curcumin 5 μM co-added with PS,23%
same,increase of intracellular levels of PS,A549 cells [3]; [12],60%
same,reduction of cell viability,A549 cells [6],4%
same,increase of uptake of PS,SW480 cells; curcumin 5 μM co-added with PS,37%
same,increase of uptake of PS,SW480 cells; [12],54%
